Assay results from patent EP0672658B1, “Antithrombotic agents” (priority 1994, dated 1995).
Structures can show the parent of a compound that is named as a salt.

What was measured:
human or animal plasma [1] = experiment: Anticoagulation determination in plasma: activated partial thromboplastin time (APTT); assay type: biochemical; conditions: concentration doubling activated partial thromboplastin time
Summary of the method: (§1)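 Compounds spiked over a concentration range into citrated human, dog or rat plasma. PT used Thromboplastin-C; APTT used Actin reagent 120 s then 0.02 M CaCl2; TT used bovine thrombin 10 NIH units/mL. Concentration doubling clotting time estimated by linear extrapolation.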

human or animal plasma [2] = experiment: Anticoagulation determination in plasma: thrombin time (TT); assay type: biochemical; conditions: concentration doubling thrombin time
Summary of the method: as §1

Plasmin = biological target: T1, Plasmin (Homo sapiens, UniProt P00747); experiment: biochemical; conditions: read-out: Kass Plasmin (converted)
T1 construct: Human plasmin is purchased; purchased Boehringer Mannheim, Indianapolis, Indiana
Description: (§2) By substantially following the procedures described above for human thrombin, and using other human blood coagulation system serine proteases and proteases of the fibrinolytic system with the appropriate chromogenic substrates, identified below, selectivity of the compounds of the present invention with respect to the coagulation factor serine proteases and with respect to the fibrinolytic system serine proteases are evaluated as well as their substantial lack of interference with serine proteases of the fibrinolytic system. Thrombin inhibitors preferably should spare fibrinolysis induced by urokinase, tissue plasminogen activator (t-PA) and streptokinase. This would be important to the therapeutic use of such agents as an adjunct to streptokinase, t-PA or urokinase thrombolytic therapy and to the use of such agents as an endogenous fibrinolysis-sparing (with respect to t-PA and urokinase) antithrombotic agent. In addition to the lack of interference with the amidase activity of the fibrinolytic proteases, such fibrinolytic system sparing can be studied by the use of human plasma clots and their lysis by the respective fibrinolytic plasminogen activators.
(§3) Human plasmin is purchased from Boehringer Mannheim, Indianapolis, Indiana; nt-PA is purchased as single chain activity reference from American Diagnostica, Greenwich, Connecticut; modified-t-PA6 (mt-PA6) is prepared at Eli Lilly and Company by procedure known in the art (See, Burck, et al., J. Biol. Chem., 265, […] (1990). Plasmin chromogenic substrate H-D-Val-Leu-Lys-p-nitroanilide and tissue plasminogen activator (t-PA) substrate H-D-Ile-Pro-Arg-p-nitroanilide are purchased from Kabi Vitrum, Stockholm, Sweden.

t-PA = t-PA (Homo sapiens, UniProt P00750); experiment: biochemical; conditions: read-out: Kass t-PA (converted)
Description: as §2, §3

human or animal plasma [3] = experiment: Anticoagulation determination in plasma: prothrombin time (PT); assay type: biochemical; conditions: concentration doubling prothrombin time
Summary of the method: as §1

factor Xa = factor Xa (Homo sapiens, UniProt P00742); experiment: biochemical; conditions: read-out: Kass Xa (converted)
Description: as §2
Human factors X, Xa, IXa, XIa, and XIIa are purchased from Enzyme Research Laboratories, South Bend, Indiana; human urokinase from Leo Pharmaceuticals, Denmark; and recombinant activated Protein C (aPC) is prepared at Eli Lilly and Co. substantially according to U.S. Patent 4,981,952. Chromogenic substrates: N-Benzoyl-Ile-Glu-Gly-Arg-p-nitroanilide (for factor Xa); N-Cbz-D-Arg-Gly-Arg-p-nitroanilide (for factor IXa assay as the factor Xa substrate); Pyroglutamyl-Pro-Arg-p-nitroanilide (for Factor XIa and for aPC); H-D-Pro-Phe-Arg-p-nitroanilide (for factor XIIa); and Pyroglutamyl-Gly-Arg-p-nitroanilide (for urokinase); are purchased from KabiVitrum, Stockholm, Sweden, or from Midwest Biotech, Fishers, Indiana. Bovine trypsin is purchased from Worthington Biochemicals, Freehold, New Jersey, and human plasma kallikrein from Kabi Vitrum, Stockholm, Sweden. Chromogenic substrate H-D-Pro-Phe-Arg-p-nitroanilide for plasma kallikrein is purchased from Kabi Vitrum, Stockholm, Sweden. N-Benzoyl-Phe-Val-Arg-p-nitroanilide, the substrate for human thrombin and for trypsin, is synthesized according to procedures described above for the compounds of the present invention, using known methods of peptide coupling from commercially available reactants or purchased from Midwest Biotech, Fishers, Indiana.

Trypsin = biological target: T2, Trypsin (Bos taurus, UniProt P00760); experiment: biochemical; set-up: species or system Bovine; conditions: read-out: Kass Trypsin (converted)
T2 sequence (P00760 24-246): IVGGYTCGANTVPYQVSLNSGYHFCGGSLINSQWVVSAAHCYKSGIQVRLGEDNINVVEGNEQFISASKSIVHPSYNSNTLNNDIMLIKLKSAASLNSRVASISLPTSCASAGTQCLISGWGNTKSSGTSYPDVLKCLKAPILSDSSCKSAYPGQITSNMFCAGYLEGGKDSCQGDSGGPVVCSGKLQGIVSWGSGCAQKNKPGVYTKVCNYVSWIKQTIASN
Summary of the method: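 Bovine trypsin and human factor Xa amidase activity measured chromogenically, following the human thrombin procedure. Substrates: N-Benzoyl-Ile-Glu-Gly-Arg-p-nitroanilide for factor Xa and N-Benzoyl-Phe-Val-Arg-p-nitroanilide for trypsin. Used for selectivity profiling.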

Human Thrombin = Human Thrombin (Homo sapiens, UniProt P00734); experiment: biochemical; conditions: read-out: Kass Human Thrombin (converted)

factor Xa, sequence (P00742 235-488 limits assumed): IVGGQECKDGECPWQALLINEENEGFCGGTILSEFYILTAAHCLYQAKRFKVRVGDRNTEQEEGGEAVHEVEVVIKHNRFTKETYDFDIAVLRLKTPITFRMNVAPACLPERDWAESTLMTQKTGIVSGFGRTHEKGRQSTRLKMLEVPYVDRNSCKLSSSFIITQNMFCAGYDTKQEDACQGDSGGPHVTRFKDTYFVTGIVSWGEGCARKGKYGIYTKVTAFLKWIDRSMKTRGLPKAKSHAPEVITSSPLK
factor Xa, sequence (P00742 41-179 partner limits assumed): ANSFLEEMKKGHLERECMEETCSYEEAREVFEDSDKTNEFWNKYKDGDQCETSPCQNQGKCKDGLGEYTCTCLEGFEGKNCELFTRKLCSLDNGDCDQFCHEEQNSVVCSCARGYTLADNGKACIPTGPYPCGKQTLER
t-PA, sequence (P00750 36-562): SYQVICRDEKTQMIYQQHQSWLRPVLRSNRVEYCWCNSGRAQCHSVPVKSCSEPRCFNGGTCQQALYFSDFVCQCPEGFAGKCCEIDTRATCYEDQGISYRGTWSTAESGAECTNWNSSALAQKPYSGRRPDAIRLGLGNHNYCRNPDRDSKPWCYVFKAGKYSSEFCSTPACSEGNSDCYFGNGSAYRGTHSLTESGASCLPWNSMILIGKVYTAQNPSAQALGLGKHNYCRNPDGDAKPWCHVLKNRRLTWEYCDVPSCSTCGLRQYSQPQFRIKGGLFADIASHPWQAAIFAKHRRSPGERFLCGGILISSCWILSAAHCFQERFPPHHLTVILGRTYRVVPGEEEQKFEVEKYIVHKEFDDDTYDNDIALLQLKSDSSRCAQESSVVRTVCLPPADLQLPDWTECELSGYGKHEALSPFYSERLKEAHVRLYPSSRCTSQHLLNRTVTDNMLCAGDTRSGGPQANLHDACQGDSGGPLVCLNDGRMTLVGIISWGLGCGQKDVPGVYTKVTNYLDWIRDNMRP
T1 sequence (P00747 581-810 limits assumed): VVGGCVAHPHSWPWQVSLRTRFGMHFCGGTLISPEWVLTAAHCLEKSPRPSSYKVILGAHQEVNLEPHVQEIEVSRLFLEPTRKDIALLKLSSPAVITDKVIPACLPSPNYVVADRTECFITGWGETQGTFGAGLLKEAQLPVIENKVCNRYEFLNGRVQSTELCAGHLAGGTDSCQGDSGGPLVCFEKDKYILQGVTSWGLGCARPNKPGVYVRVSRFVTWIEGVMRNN
T1 sequence (P00747 97-580 partner limits assumed): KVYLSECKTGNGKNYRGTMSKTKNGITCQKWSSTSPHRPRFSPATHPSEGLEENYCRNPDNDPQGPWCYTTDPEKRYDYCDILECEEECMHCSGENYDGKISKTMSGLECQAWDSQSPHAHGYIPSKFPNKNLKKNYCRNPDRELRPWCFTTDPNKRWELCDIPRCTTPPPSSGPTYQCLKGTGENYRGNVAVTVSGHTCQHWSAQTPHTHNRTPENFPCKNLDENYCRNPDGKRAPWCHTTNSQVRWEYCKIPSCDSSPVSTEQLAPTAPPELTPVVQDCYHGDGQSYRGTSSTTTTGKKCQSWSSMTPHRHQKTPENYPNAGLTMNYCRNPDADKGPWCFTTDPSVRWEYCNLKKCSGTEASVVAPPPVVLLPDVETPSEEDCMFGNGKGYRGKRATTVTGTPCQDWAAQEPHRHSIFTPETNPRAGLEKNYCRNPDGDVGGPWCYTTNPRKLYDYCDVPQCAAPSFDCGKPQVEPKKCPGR

SMILES | Kd (Plasmin) | Kd (t-PA) | Kd (factor Xa) | Kd (Trypsin) | Kd (Human Thrombin) | Human Plasma Anticoagulation 2x Clotting time (ng/mL) APTT (human or animal plasma [1]) | Human Plasma Anticoagulation 2x Clotting time (ng/mL) TT (human or animal plasma [2]) | Human Plasma Anticoagulation 2x Clotting time (ng/mL) PT (human or animal plasma [3])
N=C(N)c1ccc(CNC(=O)[C@@H]2CCCN2C(=O)[C@@H]2NCC[C@@H]3CCCC[C@@H]32)cc1 [Example 18, 1-Piq-Pro-p-NHCH2C6H4C(NH)NH2·2HCl] | 11.8 µM | 106 µM | 4.76 µM | 0.0714 µM | 0.00556 µM | 79 ng/mL | 7 ng/mL | 170 ng/mL
N=C(N)c1ccc(CNC(=O)[C@@H]2CCCN2C(=O)[C@H]2C[C@H]3CCCC[C@H]3CN2)cc1 [Example 19, D-3-Piq-Pro-p-NHCH2C6H4C(NH)NH2·3HCl] | 6.25 µM | 179 µM | 7.14 µM | 0.0244 µM | 0.0909 µM | 300 ng/mL | 58 ng/mL | 540 ng/mL
N=C(N)c1ccc(CNC(=O)[C@@H]2C[C@H](Oc3ccccc3)CN2C(=O)[C@H]2CCCCN2)cc1 [Example 22, D-hPro-Pro(4-cis-PhO)-p-NHCH2-C6H4C(NH)NH2·2HCl] | 23.8 µM | 250 µM | 23.3 µM | 0.118 µM | 0.333 µM | 2,300 ng/mL | 170 ng/mL | 1,000 ng/mL
N=C(N)c1cccc(CNC(=O)[C@@H]2CCCN2C(=O)[C@@H]2NCC[C@@H]3CCCC[C@@H]32)c1 [Example 25, D-1-Piq-Pro-m-NHCH2-C6H4C(=NH)NH2·HCl] | > 1000 µM | 100 µM | > 1000 µM | 100 µM | 2.33 µM | 34,600 ng/mL | 1,430 ng/mL | 40,400 ng/mL
N=C(N)c1ccc(CCNC(=O)[C@@H]2CCCN2C(=O)[C@@H]2NCC[C@@H]3CCCC[C@@H]32)cc1 [Example 28, 1-Piq-Pro-p-NHCH2CH2-C6H4C(=NH)NH2·2HCl] | > 1000 µM | > 1000 µM | 100 µM | 9.09 µM | 1.05 µM | 8,100 ng/mL | 520 ng/mL | 8,300 ng/mL
N=C(N)c1ccc(CCCNC(=O)[C@@H]2CCCN2C(=O)[C@@H]2NCC[C@@H]3CCCC[C@@H]32)cc1 [Example 32, 1-Piq-Pro-p-NHCH2CH2CH2-C6H4C(=NH)NH2·HCl] | > 1000 µM | 100 µM | 33.3 µM | 25 µM | 7.69 µM | 28,500 ng/mL | 3,100 ng/mL | 47,800 ng/mL

Continued, in another order:

Kd (Plasmin) | Kd (t-PA) | Kd (factor Xa) | Kd (Trypsin) | Kd (Human Thrombin) | SMILES | Human Plasma Anticoagulation 2x Clotting time (ng/mL) APTT (human or animal plasma [1]) | Human Plasma Anticoagulation 2x Clotting time (ng/mL) TT (human or animal plasma [2]) | Human Plasma Anticoagulation 2x Clotting time (ng/mL) PT (human or animal plasma [3])
32.3 µM | 500 µM | 1.61 µM | 1.04 µM | 0.278 µM | N=C(N)c1ccc(CNC(=O)CN(CCc2ccccc2)C(=O)[C@H]2CCCCN2)cc1 [Example 21, D-hPro-N(PhCH2CH2)Gly-p-NHCH2-C6H4C(NH)NH2·2HCl] | 2,000 ng/mL | 160 ng/mL | 1,000 ng/mL
2.27 µM | 3.23 µM | 7.14 µM | 0.0476 µM | 0.0013 µM | CCS(=O)(=O)N[C@H](Cc1ccccc1)C(=O)N1CCC[C@H]1C(=O)NCc1ccc(C(=N)N)cc1 [Example 23, EtSO2-D-Phe-Pro-p-NHCH2-C6H4C(=NH)NH2·HCl] | 86 ng/mL | 7 ng/mL | 120 ng/mL
> 1000 µM | > 1000 µM | > 1000 µM | 33.3 µM | 1.28 µM | CCS(=O)(=O)N[C@H](Cc1ccccc1)C(=O)N1CCC[C@H]1C(=O)NCc1cccc(C(=N)N)c1 [Example 24, EtSO2-D-Phe-Pro-m-NHCH2-C6H4C(=NH)NH2·HCl] | 25,900 ng/mL | 1,000 ng/mL | 25,000 ng/mL
> 1000 µM | 50 µM | 50 µM | 50 µM | 3.45 µM | CCS(=O)(=O)N[C@H](Cc1ccccc1)C(=O)N1CCC[C@H]1C(=O)NCCc1cccc(C(=N)N)c1 [Example 27, EtSO2-D-Phe-Pro-m-NHCH2CH2-C6H4C(=NH)NH2·HCl] | 27,800 ng/mL | 1,940 ng/mL | 27,000 ng/mL
> 1000 µM | > 1000 µM | 50 µM | 50 µM | 1.32 µM | N=C(N)c1cccc(CCNC(=O)[C@@H]2CCCN2C(=O)[C@@H]2NCC[C@@H]3CCCC[C@@H]32)c1 [Example 29, 1-Piq-Pro-m-NHCH2CH2-C6H4C(=NH)NH2·2HCl] | 9,800 ng/mL | 750 ng/mL | 15.800 ng/mL
> 1000 µM | > 1000 µM | 50 µM | 33.3 µM | 1.82 µM | CCS(=O)(=O)N[C@H](Cc1ccccc1)C(=O)N1CCC[C@H]1C(=O)NCCCc1ccc(C(=N)N)cc1 [Example 30, EtSO2-D-Phe-Pro-p-NHCH2CH2CH2-C6H4C(=NH)NH2·HCl] | 14,000 ng/mL | 1,000 ng/mL | 14,400 ng/mL
> 1000 µM | > 1000 µM | 7.14 µM | 20 µM | 14.3 µM | CCS(=O)(=O)N[C@H](Cc1ccccc1)C(=O)N1CCC[C@H]1C(=O)NCCCc1cccc(C(=N)N)c1 [Example 31, EtSO2-D-Phe-Pro-m-NHCH2CH2CH2-C6H4C(=NH)NH2·HCl] | 34,500 ng/mL | 10,800 ng/mL | 30,000 ng/mL
> 1000 µM | > 1000 µM | 25 µM | 50 µM | 25 µM | N=C(N)c1cccc(CCCNC(=O)[C@@H]2CCCN2C(=O)[C@@H]2NCC[C@@H]3CCCC[C@@H]32)c1 [Example 33, 1-Piq-Pro-m-NHCH2CH2CH2-C6H4C(=NH)NH2·HCl] | 59,300 ng/mL | 18,900 ng/mL | 70,900 ng/mL
100 µM | 100 µM | > 1000 µM | 2.04 µM | 1.54 µM | CCS(=O)(=O)N[C@H](Cc1ccccc1)C(=O)N1CCC[C@H]1C(=O)NCc1ccc(NC(=N)N)cc1 [Example 34, EtSO2-D-Phe-Pro-p-NHCH2C6H4NHC(NH)NH2·HCl] | 4,900 ng/mL | 530 ng/mL | 5,500 ng/mL
